The text below walks through data of US20240418717A1, “APPARATUS AND METHOD FOR ANALYZING PLATELET AGGREGATION” (MEDTRONIC VASCULAR, INC., priority 2020, published 2024).

The subject of assay [1] is platelets in platelet rich plasma (PRP). Put plainly: Platelet aggregation by washer (disk) minimum position in platelet rich plasma. In kind it is cell-based. The settings on record: platelet rich plasma containing 1.5 U/mL heparin; 20 micromolar ADP; relative to absence of ADP; FIG. 8. The text has this: Platelet rich plasma (PRP) containing 1.5 U/mL heparin was filled into a six-channel cartridge similar to cartridge 200 depicted in and described regarding FIG. 7 for use with an analyzer similar to analyzer 300 depicted in and described regarding FIG. 6. The analyzer and cartridge were similar to those described in U.S. Pat. Nos. 5,629,209 and 6,613,286.
One chamber of the cartridge contained ADP such that the concentration in the chamber was 20 micromolar after introduction of the sample. Another chamber included no ADP. No other clot enhancing agent was in the sample or chamber of the cartridge. The chambers included a ferromagnetic washer. The cartridge was inserted in the analyzer before PRP sample fill. Immediately after the sample introduction, the test began, and platelet aggregation was analyzed.
The analyzer was programmed to hold the washer (disk) at the top of the chamber for 90 to 95% of the test cycle (a test cycle is the time sum of lift time and drop time), which was about 4.5 seconds for a test cycle of 5 seconds, to ensure platelets in the test sample aggregated and accumulated at the bottom of the chamber. The washer was allowed to drop (electromagnet deactivated), and the washer minimum position was determined by the proximity sensor (e.g., sensor 30 depicted in and described regarding FIGS. 2-5) in the presence and absence of ADP.

The test system of another assay is platelet poor plasma. Put plainly: Platelet aggregation by washer (disk) minimum position in platelet poor plasma. The settings on record: platelet poor plasma containing 1.5 U/mL heparin; 20 micromolar ADP; FIG. 9. Type of assay: cell-based. From the text:
Platelet poor plasma […] containing 1.5 U/mL heparin was filled into a six-channel cartridge similar to cartridge 200 depicted in and described regarding FIG. 7 for use with a blood analyzer similar to analyzer 300 depicted and described regarding FIG. 6. The analyzer and cartridge were similar to those described in U.S. Pat. Nos. 5,629,209 and 6,613,286. A chamber of the cartridge contained ADP such that the concentration in the chamber was 20 micromolar after introduction of the sample. No other clot enhancing agent was in the sample or chamber of the cartridge. The chambers included a ferromagnetic washer. Following introduction of the sample after the cartridge was inserted into the blood analyzer, the test was started, and platelet aggregation was analyzed. The blood analyzer was programmed to hold the washer (disk) at the top of the chamber for 90 to 95% of the test cycle (a test cycle is the time sum of lift time and drop time), which was about 4.5 seconds for a test cycle of 5 seconds, to ensure platelets in the test sample aggregated and accumulated at the bottom of the chamber. The washer was allowed to drop (electromagnet deactivated), and the washer minimum position was determined.

Consider `Nc1ncnc2c1ncn2[C@@H]1O[C@H](COP(=O)(O)OP(=O)(O)O)[C@@H](O)[C@H]1O` [ADP, adenosine diphosphate], for which the “washer (disk) minimum position (platelet aggregation)” value in assay [1] is “increased”. Also, in the assay on platelet poor plasma, the “disk minimal position (platelet aggregation)” value is “did not increase”.
